From patent US20260132129A1 (Genesis Therapeutics, Inc., priority 2022, published 2026)
pIC50: −log10 of the molar value.

Molecular target: T1, PI3Kα H1047R (T47D cells) (Homo sapiens, UniProt P42336, H1047R)
T1 construct: endogenous in cells; host or cells: T47D cells
Assay: PI3Kα cellular assay: pAKT HTRF in T47D cells after EGF stimulation
Assay type: cell-based
Conditions: for pIC50: T47D cells (PI3Kα H1047R), pAKT S473 HTRF, 1 hr compound, 20 ng/ml EGF 10 min
Procedure, shortened: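 pAKT read by HTRF in lysates of EGF-stimulated (20 ng/mL, 10 min) T47D H1047R cells. Before stimulation, serum-starved cells (16 h) received compound for 1 h at 37 °C, dosed from 10,000 nM down to 0.5 nM in 3-fold steps.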

T1 sequence (P42336 whole entry H1047R): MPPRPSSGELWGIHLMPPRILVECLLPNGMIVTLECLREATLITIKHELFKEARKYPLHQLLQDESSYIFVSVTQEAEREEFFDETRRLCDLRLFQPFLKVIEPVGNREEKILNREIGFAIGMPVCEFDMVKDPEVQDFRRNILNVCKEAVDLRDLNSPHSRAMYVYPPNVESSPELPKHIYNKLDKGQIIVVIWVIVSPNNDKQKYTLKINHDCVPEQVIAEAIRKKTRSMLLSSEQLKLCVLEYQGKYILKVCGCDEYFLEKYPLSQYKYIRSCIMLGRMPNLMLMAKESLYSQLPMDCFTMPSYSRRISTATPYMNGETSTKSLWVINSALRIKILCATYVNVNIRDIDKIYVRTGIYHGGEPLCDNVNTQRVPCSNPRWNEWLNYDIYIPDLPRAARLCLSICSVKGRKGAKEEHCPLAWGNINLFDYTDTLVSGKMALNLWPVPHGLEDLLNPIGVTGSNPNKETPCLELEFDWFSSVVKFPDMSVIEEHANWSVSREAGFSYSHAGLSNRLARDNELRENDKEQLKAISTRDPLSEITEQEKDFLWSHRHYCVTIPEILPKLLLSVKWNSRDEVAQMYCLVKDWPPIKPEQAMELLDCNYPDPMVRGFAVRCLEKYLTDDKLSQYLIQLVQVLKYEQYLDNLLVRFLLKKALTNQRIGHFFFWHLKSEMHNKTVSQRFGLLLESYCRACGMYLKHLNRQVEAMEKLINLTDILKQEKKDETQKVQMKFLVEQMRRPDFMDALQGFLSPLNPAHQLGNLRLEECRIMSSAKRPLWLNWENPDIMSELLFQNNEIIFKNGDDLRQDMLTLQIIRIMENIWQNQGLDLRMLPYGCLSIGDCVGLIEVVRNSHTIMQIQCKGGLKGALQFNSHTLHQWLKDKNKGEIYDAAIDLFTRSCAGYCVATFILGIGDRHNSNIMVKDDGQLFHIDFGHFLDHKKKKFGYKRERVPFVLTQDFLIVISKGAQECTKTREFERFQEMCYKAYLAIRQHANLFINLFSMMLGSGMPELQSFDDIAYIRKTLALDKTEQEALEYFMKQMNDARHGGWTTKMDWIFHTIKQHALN
T1 sequence (P27986 whole entry partner): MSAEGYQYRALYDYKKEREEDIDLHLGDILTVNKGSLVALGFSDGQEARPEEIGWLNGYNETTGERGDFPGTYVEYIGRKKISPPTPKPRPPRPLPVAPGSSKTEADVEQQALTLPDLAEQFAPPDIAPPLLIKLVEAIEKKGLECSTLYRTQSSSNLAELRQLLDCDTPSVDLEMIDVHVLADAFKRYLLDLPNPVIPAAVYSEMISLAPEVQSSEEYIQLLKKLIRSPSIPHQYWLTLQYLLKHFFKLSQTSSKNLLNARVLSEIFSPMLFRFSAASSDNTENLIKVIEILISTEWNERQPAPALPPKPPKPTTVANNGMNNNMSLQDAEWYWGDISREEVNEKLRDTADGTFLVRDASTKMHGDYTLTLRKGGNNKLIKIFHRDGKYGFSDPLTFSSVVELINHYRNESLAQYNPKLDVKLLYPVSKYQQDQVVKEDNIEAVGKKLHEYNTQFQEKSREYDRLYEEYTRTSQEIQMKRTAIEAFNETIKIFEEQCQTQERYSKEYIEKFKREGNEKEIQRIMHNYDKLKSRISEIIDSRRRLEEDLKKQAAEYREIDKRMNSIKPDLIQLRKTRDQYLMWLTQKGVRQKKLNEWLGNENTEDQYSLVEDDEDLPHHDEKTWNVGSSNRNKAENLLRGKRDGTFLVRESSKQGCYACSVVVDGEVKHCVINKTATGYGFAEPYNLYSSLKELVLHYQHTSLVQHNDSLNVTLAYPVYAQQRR

pIC50	T47D pAKT S473 HTRF IC50 (H1047R): T47D (H1047R) selectivity over SKBR3 (WT)	SMILES
< 5.70	C (C denotes ≤5-fold)	Cc1cc(C(C)Nc2c(F)cccc2C(=O)O)c2nc(N3CCOCC3)cc(=O)n2c1 (stereo not shown) [Compound 290]
< 5.70	C (C denotes ≤5-fold)	CC[C@@H](Nc1ccccc1C(=O)O)c1cc(C)cn2c(=O)cc(N3CCOCC3)nc12 [Compound 293]
5.70 to 6.30	C (C denotes ≤5-fold)	CC[C@H](Nc1ccccc1C(=O)O)c1cc(C)cn2c(=O)cc(N3CCOCC3)nc12 [Compound 294]
5.70 to 6.30	B (B denotes 20-fold≥value>5-fold)	Cc1cc(C(C)Nc2ccccc2C(=O)O)c2nc(N3CCOC[C@H]3C)cc(=O)n2c1 (stereo partly shown) [Compound 295]
< 5.70	C (C denotes ≤5-fold)	Cc1cc([C@@H](C)Nc2ccccc2C(=O)O)c2nc(N3CCOC[C@H]3C)cc(=O)n2c1 [Compound 296]
6.30 to 7.00	A (A denotes >20-fold)	Cc1cc([C@H](C)Nc2ccccc2C(=O)O)c2nc(N3CCOC[C@H]3C)cc(=O)n2c1 [Compound 297]
< 5.70	C (C denotes ≤5-fold)	CONC(=O)c1ccc(-c2cc(=O)n3cc(C)cc(C(C)NC4=CC=CCC4C(=O)O)c3n2)c(OC)c1 (stereo not shown) [Compound 299]
< 5.70	C (C denotes ≤5-fold)	Cc1cc(C(C)NC2=CC=CCC2C(=O)O)c2nc(Cc3cccc(C4=CCCC=C4)c3)c(C)c(=O)n2c1 (stereo not shown) [Compound 300]
5.70 to 6.30	B (B denotes 20-fold≥value>5-fold)	Cc1cc(C(C)Nc2ccccc2C(=O)O)c2nc(-c3ccc(S(N)(=O)=O)cc3)cc(=O)n2c1 (stereo not shown) [Compound 302]
< 5.70	C (C denotes ≤5-fold)	Cc1cc(C(C)Nc2ccccc2C(=O)O)c2nc(-c3cccc(-c4nn[nH]n4)c3)cc(=O)n2c1 (stereo not shown) [Compound 303]
< 5.70	C (C denotes ≤5-fold)	Cc1cc(C(C)Nc2ccccc2C(=O)O)c2nc(-c3ccc4[nH]nc(-c5ccccn5)c4c3)cc(=O)n2c1 (stereo not shown) [Compound 304]
5.70 to 6.30	B (B denotes 20-fold≥value>5-fold)	Cc1cc([C@@H](C)Nc2ccccc2C(=O)O)c2nc(-c3ccc(CC4CCN(C)CC4)cc3)c(C)c(=O)n2c1 [Compound 307]
< 5.70	C (C denotes ≤5-fold)	Cc1cc(C(C)Nc2ccccc2C(=O)O)c2nc(-c3ccc(CN4CCN(C)CC4)cc3)cc(=O)n2c1 (stereo not shown) [Compound 308]
< 5.70	C (C denotes ≤5-fold)	Cc1cc([C@@H](C)N(C)c2ccccc2C(=O)O)c2nc(N3CCOCC3)cc(=O)n2c1 [Compound 309]
< 5.70	C (C denotes ≤5-fold)	Cc1cc([C@H](C)N(C)c2ccccc2C(=O)O)c2nc(N3CCOCC3)cc(=O)n2c1 [Compound 310]
< 5.70	C (C denotes ≤5-fold)	COCCNc1cc(=O)n2cc(C)cc(C(C)Nc3ccccc3C(=O)O)c2n1 (stereo not shown) [Compound 313]
5.70 to 6.30	B (B denotes 20-fold≥value>5-fold)	Cc1cc(C(C)Nc2ccccc2C(=O)O)c2nc(N3C[C@@H](C)O[C@@H](C)C3)cc(=O)n2c1 (stereo partly shown) [Compound 315]
< 5.70	C (C denotes ≤5-fold)	Cc1cc([C@@H](C)Nc2ccccc2C(=O)O)c2nc(C3CCOCC3)cc(=O)n2c1 [Compound 316]
6.30 to 7.00	A (A denotes >20-fold)	Cc1cc([C@H](C)Nc2ccccc2C(=O)O)c2nc(C3CCOCC3)cc(=O)n2c1 [Compound 317]
< 5.70	C (C denotes ≤5-fold)	Cc1cc(C(C)Nc2ccccc2C(=O)O)c2nc(-c3ccc4[nH]nc(-c5ccccn5)c4c3)cc(=O)n2c1 (stereo not shown) [Compound 318]
6.30 to 7.00	A (A denotes >20-fold)	Cc1cc([C@@H](C)Nc2ccccc2C(=O)O)c2nc(N3C[C@@H](C)O[C@@H](C)C3)cc(=O)n2c1 [Compound 319]

pIC50	T47D pAKT S473 HTRF IC50 (H1047R): T47D (H1047R) selectivity over SKBR3 (WT)	SMILES
< 5.70	C (C denotes ≤5-fold)	Cc1cc([C@H](C)Nc2ccccc2C(=O)O)c2nc(N3C[C@@H](C)O[C@@H](C)C3)cc(=O)n2c1 [Compound 320]
< 5.70	C (C denotes ≤5-fold)	Cc1cc(C(C)Nc2ccccc2C#N)c2nc(N3CCOCC3)cc(=O)n2c1 (stereo not shown) [Compound 321]
< 5.70	C (C denotes ≤5-fold)	COc1ccc(C(=O)O)c(NC(C)c2cc(C)cn3c(=O)cc(N4CCOCC4)nc23)c1 (stereo not shown) [Compound 323]
< 5.70	C (C denotes ≤5-fold)	COc1cc(NC(C)c2cc(C)cn3c(=O)cc(N4CCOCC4)nc23)c(C(=O)O)cc1OC (stereo not shown) [Compound 325]
< 5.70	C (C denotes ≤5-fold)	Cc1cc(C(C)Nc2cc(C#N)ccc2C(=O)O)c2nc(N3CCOCC3)cc(=O)n2c1 (stereo not shown) [Compound 326]
< 5.70	C (C denotes ≤5-fold)	Cc1cc(C(C)Nc2cc(C(F)(F)F)ccc2C(=O)O)c2nc(N3CCOCC3)c(C)c(=O)n2c1 (stereo not shown) [Compound 328]
< 5.70	C (C denotes ≤5-fold)	Cc1cc(C(C)Nc2ccc(C#N)cc2C(=O)O)c2nc(N3CCOCC3)cc(=O)n2c1 (stereo not shown) [Compound 329]
< 5.70	C (C denotes ≤5-fold)	Cc1cc([C@@H](C)Nc2cccc(C)c2C(=O)O)c2nc(C3CCOCC3)cc(=O)n2c1 [Compound 330]
< 5.70	C (C denotes ≤5-fold)	Cc1cc([C@H](C)Nc2cccc(F)c2C(=O)O)c2nc(N3CCOCC3)cc(=O)n2c1 [Compound 331]
< 5.70	C (C denotes ≤5-fold)	Cc1cc([C@@H](C)Oc2ccc(F)cc2C(=O)O)c2nc(N3CCOCC3)cc(=O)n2c1 [Compound 332]
< 5.70	C (C denotes ≤5-fold)	Cc1cc([C@@H](C)Nc2c(F)cccc2C(=O)O)c2nc(N3CCOCC3)cc(=O)n2c1 [Compound 333]
< 5.70	C (C denotes ≤5-fold)	Cc1cc([C@H](C)Nc2c(F)cccc2C(=O)O)c2nc(N3CCOCC3)cc(=O)n2c1 [Compound 334]
< 5.70	C (C denotes ≤5-fold)	Cc1cc([C@@H](C)Nc2c(C)cccc2C(=O)O)c2nc(N3CCOCC3)cc(=O)n2c1 [Compound 335]
< 5.70	C (C denotes ≤5-fold)	Cc1cc([C@H](C)Nc2ccccc2C#N)c2nc(N3CCOCC3)cc(=O)n2c1 [Compound 338]
	C (C denotes ≤5-fold)	Cc1cc(C(C)Nc2ccccc2C(=O)O)c2nc(C3CCC(C)CC3)cc(=O)n2c1 (stereo not shown) [Compound 339]
< 5.70	C (C denotes ≤5-fold)	Cc1cc([C@@H](C)Nc2ccccc2-n2nn[nH]c2=O)c2nc(N3CCOCC3)cc(=O)n2c1 [Compound 343]
< 5.70	C (C denotes ≤5-fold)	Cc1cc([C@H](C)Nc2ccccc2-n2nn[nH]c2=O)c2nc(N3CCOCC3)cc(=O)n2c1 [Compound 344]
5.70 to 6.30	A (A denotes >20-fold)	Cc1cc(C(C)Nc2ccccc2S(N)(=O)=O)c2nc(-c3ccncc3)cc(=O)n2c1 (stereo not shown) [Compound 346]
6.30 to 7.00	A (A denotes >20-fold)	Cc1cc(C(C)Nc2ccccc2C(=O)O)c2nc(-c3ccc4c(c3)c(N)nn4C)cc(=O)n2c1 (stereo not shown) [Compound 347]
	A (A denotes >20-fold)	Cc1cc(C(C)Nc2ccccc2C(=O)O)c2nc(-c3ccc4[nH]nc(C)c4c3)cc(=O)n2c1 (stereo not shown) [Compound 348]
< 5.70	C (C denotes ≤5-fold)	Cc1cc(C(C)Nc2ccccc2C(=O)O)c2nc(-c3cnc4[nH]nc(-c5ccccc5)c4c3)cc(=O)n2c1 (stereo not shown) [Compound 351]
